Experimental data reported in US20240287132A1, “PEPTIDE, COMPOSITION, AND GHRELIN SECRETION PROMOTING AGENT” (KYOTO UNIVERSITY, priority 2019, published 2024).

Tests used:
male ddY mice [1] = assay: Evaluation 2 of eating behavior of mice (feed intake over 2 hours); type: in vivo; conditions: 7 weeks old male ddY mice, single oral dose 1 mg/kg, 2 hours after feeding, FIG. 6, *: P<0.05 relative to the control
Experimental: Mice (7 weeks old male ddY mice acclimated for at least 1 week before use after being purchased) were orally administered with a single dose of a saline solution of each peptide (1 mg/kg). Subsequently, a previously weighed feed (CE-2 (trade name) manufactured by CLEA Japan, Inc.) was given to the mice, and 2 hours after the feeding, the weight of the remaining feed was measured. A control test was also carried out in which the same procedure was carried out as shown above except that a single dose of saline was orally administered instead of each peptide. The amount of feed intake (g/2 hours) was defined as the difference between the weight of the feed given to the mice and the weight of the feed remaining 2 hours after the feeding. Based on the results, the amount of feed intake in the control group was normalized to 100, and the amount of feed intake in each group was calculated relative to 100. The results are shown in FIG. 6 (n=7 to 18, *: P<0.05 relative to the control).

[2] = system: Ghrelin-secreting cells (MGN3-1); assay: Ghrelin secretion activity evaluation (ghrelin in medium, ELISA); type: cell-based; conditions: MGN3-1 cells; for ghrelin secretion (ghrelin concentration in medium): peptide concentration 0.01, 0.1, or 1 mM, FIG. 2, n=4; for significance of ghrelin secretion promoting effect: peptide concentration of 1 mM or more, FIG. 2
Experimental: (§1) Ghrelin-secreting cells (MGN3-1) were seeded at 1×10^5 cells/well onto a 96-well plate and cultured in a sodium octanoate/DMEM medium at 37° C. for 24 hours. After the cultivation, the cells were washed with DPBS. A buffer solution of each peptide was prepared and, 100 μL of the buffer solution (with a peptide concentration of 1 mg/mL or 10 mg/mL) was added to the cells. The cells were further cultured at 37° C. for 4 hours. The buffer used contained 50 μM of sodium octanoate in DMEM.
Unless otherwise stated, all tests shown below were performed using, as a control, a culture obtained in the same manner as shown above except that only the buffer was added instead of the buffer solution of the peptide.
After the cultivation, the medium sample was collected and centrifuged to give a supernatant. Subsequently, 10 μL of 1 N HCl was added to the supernatant, and the resulting sample was stored at −80° C. until it was subjected to the ghrelin concentration measurement shown below.
The concentration of ghrelin in each medium sample was measured using an ELISA kit (Ghrelin (Acylated) EIA Kit A05117 (trade name) manufactured by Bertin Pharma SAS). The results shown in FIG. 1 are values relative to the measured value of the control.
The two peptides were evaluated for their effect on ghrelin secretion by the same method as shown above (Ghrelin Secretion Activity Evaluation 1).

[3] = system: Ghrelin-secreting cells (MGN3-1); assay: Intracellular ghrelin level (Ghrelin Secretion Activity Evaluation 3); type: cell-based; conditions: MGN3-1 cells, FIG. 3A, n=4 or 5
Experimental: as §1
The peptide of SEQ ID NO: 1 was evaluated for its effect on ghrelin secretion (intracellular ghrelin level) by the same method as shown above (Ghrelin Secretion Activity Evaluation 1).

[4] = system: ghrelin synthesis-related genes (Preproghrelin, GOAT, and PC3); assay: Evaluation of ghrelin synthesis-related gene expression (qPCR); type: cell-based; conditions: MGN3-1 cells, FIGS. 3B, 3C, 3D, n=4 or 5
Experimental: The expression levels of the three, ghrelin synthesis-related genes (Preproghrelin, GOAT, and PC3) in the cells obtained after the completion of the cultivation shown above (Ghrelin Secretion Activity Evaluation 1) were measured by the method shown below. First, mRNA was extracted from the cells using RNeasy Mini Kit (manufactured by QIA-GEN) and Takara PrimeScript RT Master Mix (manufactured by Takara Bio Inc.). Subsequently, the mRNA expression level was measured through the amplification of cDNA using LightCycler 96 System (manufactured by Roche Diagnostics K.K.) and THUNDERBIRD qPCR Mix (manufactured by Toyobo Co., Ltd.). The results are shown in FIG. 3B (Preproghrelin), FIG. 3C (GOAT), and FIG. 3D (PC3) (n=4 or 5).

[5] = system: Ghrelin-secreting cells (MGN3-1); assay: Evaluation of intracellular CAMP level; type: cell-based; conditions: MGN3-1 cells, 0.5 mM IBMX, 37° C. 30 minutes, FIG. 4
Experimental: Ghrelin-secreting cells (MGN3-1) were […] in a Krebs-Ringer-HEPES buffer containing 0.5 mM IBMX. After the mixture was incubated at 37° C. for 30 minutes, the intracellular CAMP was quantified using HitHunter CAMP Assay for Small Molecules (manufactured by DiscoveRx).

[6] = system: Ghrelin-secreting cells (MGN3-1); assay: Evaluation of intracellular calcium ion level; type: cell-based; conditions: data not shown
Experimental: The intracellular calcium ion level was measured using Calcium Kit II-Fluo 4 (Dojindo Laboratories) and a multi-plate reader (manufactured by BMG LABTECH GmbH, Aex: 485 nm, Xem: 520 nm).

male ddY mice [7] = assay: Evaluation 1 of eating behavior of mice (feed intake over 4 hours); type: in vivo; conditions: 11 weeks old male ddY mice, single oral dose 1 mg/kg, 4 hours after feeding, vs saline control, FIG. 5A
Experimental: Mice (11 weeks old male ddY mice) were orally administered with a single dose of a saline solution of the peptide of SEQ ID NO: 1 (1 mg/kg). Subsequently, a previously weighed feed (CE-2 (trade name) manufactured by CLEA Japan, Inc.) was given to the mice, and 4 hours after the feeding, the weight of the remaining feed was measured. A control test was also carried out in which the same procedure was carried out as shown above except that a single dose of saline was orally administered instead of the peptide of SEQ ID NO: 1. The amount of feed intake (g/4 hours) was defined as the difference between the weight of the feed given to the mice and the weight of the feed remaining 4 hours after the feeding.

male ddY mice [8] = assay: Evaluation of mouse serum ghrelin level; type: in vivo; conditions: 11 weeks old male ddY mice, 0.3 mg/kg, 1 hour after administration, FIG. 5B
Experimental: Mice (11 weeks old male ddY mice) were administered with a saline solution of the peptide of SEQ ID NO: 1 (0.3 mg/kg). Subsequently, 1 hour after the administration, blood was collected from the orbital vein of the mice and centrifuged at 4° C. at 1,120×g for 10 minutes. The resulting supernatant was acidified with 1 N HCl and then measured for serum ghrelin level (pg/ml) using an acylated ghrelin enzyme immunoassay kit.

QGSF [SEQ ID NO: 7]
amount of feed intake relative to control (control normalized to 100) (male ddY mice [1]): significantly increased

TNPW [SEQ ID NO: 5]
amount of feed intake relative to control (control normalized to 100) (male ddY mice [1]): significantly increased

TNPWHSPROGSF (TNPWHSPRQGSF) [SEQ ID NO: 2]
ghrelin secretion (ghrelin concentration in medium) [2]: ghrelin secretion promoting effect
significance of ghrelin secretion promoting effect [2]: significant
amount of feed intake relative to control (control normalized to 100) (male ddY mice [1]): increased

HSPR [SEQ ID NO: 6]
amount of feed intake relative to control (control normalized to 100) (male ddY mice [1]): significantly increased

QAFE [SEQ ID NO: 3]
amount of feed intake relative to control (control normalized to 100) (male ddY mice [1]): significantly increased

QAFEPIRSV [SEQ ID NO: 1]
extracellular ghrelin level ([2]; data not shown): increased
ghrelin secretion (ghrelin concentration in medium) [2]: ghrelin secretion promoting effect
significance of ghrelin secretion promoting effect [2]: significant
intracellular ghrelin level [3]: tendency to reduce
expression levels of the ghrelin synthesis-related genes (Preproghrelin, GOAT, PC3 mRNA) [4]: not found to change
intracellular CAMP level [5]: no effect
intracellular calcium ion level [6]: no effect
amount of feed intake (male ddY mice [7]): increased
serum ghrelin level (male ddY mice [8]): increased
amount of feed intake relative to control (control normalized to 100) (male ddY mice [1]): increased
